Measured values as given in patent US8410109B2, “Pharmaceutical compositions for the prevention and treatment of complex diseases and their delivery by insertable medical devices” (Resverlogix Corp., priority 2005, dated 2013).
Where a name gives a salt, the structure may show the parent alone.

Tests used:
MCP-1 = MCP-1 ELISA on culture media of TNF-α stimulated HUVECs; format: cell-based; conditions: Homo sapiens, HUVEC, 50 uM, approx. 16 hours
Protocol: (§1) Compounds were dissolved in DMSO, aliquoted, and stored at −20° C. Cultured human vascular endothelial cells (HUVECs) were seeded in 96-well plates in complete EGM-2 media (˜100 μL/well); cells were plated at ˜2-3×10^5/mL, and were from passage 8 to 12. Cells were incubated overnight. On the following day cells are stimulated with TNF-α (˜1 ng/mL) in the presence or absence of compounds dissolved in DMSO. Triplicate wells were used for each test. To establish a dose curve and an IC50, multiple concentrations in 2- to 5-fold increments were used. Cells were exposed to TNF-α and compounds for approximately 16 hours. The next day, cells were visually examined via light microscopy to score for visual signs of toxicity. Cell culture media was analyzed using an MCP-1 ELISA. Cells were refed (−100 μL/well) with 20% CellTiter 96. Aqueous One Cell Proliferation Solution (Promega), 80% EGM-2 medium. Media optical density (at 490 nm) was determined after 1 hour. Plates were aspirated and cell lysates were prepared and these lysates were tested using a VCAM-1 ELISA.
(§2) In Table 2, a positive result (+) was defined as at least 50% inhibition of the protein levels MCP-1 or VCAM-1, as determined by the ELISA.

VCAM-1 = VCAM-1 ELISA on lysates of TNF-α stimulated HUVECs; format: cell-based; conditions: Homo sapiens, HUVEC, 50 uM, approx. 16 hours
Protocol: as §1, §2

[1] = tested on: Human coronary artery smooth muscle cells (CASMCs); assay: Smooth muscle cell proliferation protocol; format: cell-based; conditions: 50 uM, 72 hours, read-out: % Inhibition of SMC Proliferation
Protocol: Compounds were dissolved in DMSO, aliquoted, and stored at −20° C. Human coronary artery smooth muscle cells (CASMCs) were plated in 96-well plates and were grown in SmBM-2 media. After 1-2 hours, media was aspirated and replaced with serum-free ME/F12 media, except the controls. Cells were incubated for a further 48 hours. Compounds were diluted in DME/F12 containing 10% FBS. Media was aspirated from the plates and compounds in DME/F12 containing 10% FBS. Six wells were used per condition and duplicate plates were used. Cells were incubated for a further 72 hours. Media was aspirated from one set of plates; those cells were refed (˜100 μL/well) with 20% CellTiter 96 Aqueous One Cell Proliferation Solution (Promega), 80% EGM-2 medium. Media optical density (at 490 nm) was determined after 3-4 hours. In the second set of plates, serum-free DME/F12 media (20 μL) was added to each well. Part of the supernatant (50 μL) was removed and placed in an ELISA plate and was stored temporarily at 4° C. The remaining media and cells in the second set of plates were freeze-thawed for four cycles. The lysates and supernatants were mixed and centrifuged. Part of the supernatant (50 μL) was removed and placed in an ELISA plate. The Promega Cytotox assay was performed on the ELISA plates. The ratio of supernatant OD to supernatant+cell lysate OD was determined.
In Table 2, a positive result (+) was defined as at least 40% inhibition of the proliferation of SMC, as determined by the assay.

melting point	SMILES	inhibition at 50 µM (MCP-1)	inhibition at 50 µM (VCAM-1)	inhibition at 50 µM [1]
347.6 to 348.2 °C	O=c1[nH]c2ccc(-c3cc(=O)c4ccccc4o3)cc2o1 [EXAMPLE 36, 6-(4-oxo-4H-chromen-2-yl)benzo[d]oxazol-2(3H)-one]	< 50%	≥ 50%	≥ 40%
337 to 338 °C	Cc1cc(-c2cc(=O)c3cc(CN4CCCC4)cnc3o2)cc(C)c1O (as salt: hydrochloride) [EXAMPLE 33, 2-(4-hydroxy-3,5-dimethylphenyl)-6-(pyrrolidin-1-ylmethyl)-4H-pyrano[2,3-b]pyridin-4-one dihydrochloride]			
265 to 268 °C	O=c1cc(-c2ccc(F)cc2)oc2ncc(CN3CCCC3)cc12 (as salt: hydrochloride) [EXAMPLE 37, 2-(4-fluorophenyl)-6-(pyrrolidin-1-ylmethyl)-4H-pyrano[2,3-b]pyridin-4-one hydrochloride]			
273.5 to 275 °C	O=c1cc(-c2ccc(O)c(-c3cccs3)c2)oc2ncccc12 [EXAMPLE 28, 2-(4-hydroxy-3-(thiophen-2-yl)phenyl)-4H-pyrano[2,3-b]pyridin-one]	< 50%	≥ 50%	< 40%
205 °C	CN(C)Cc1ccc2c(=O)cc(-c3ccc(O)cc3)oc2n1 (as salt: hydrochloride) [EXAMPLE 26, 7-((dimethylamino)methyl-2-(4-hydroxyphenyl)-4H-pyrano[2,3-b]pyridin-4-one dihydrochloride]			
294 to 296 °C	O=c1cc(-c2ccccc2)oc2ncc(CN3CCCC3)cc12 (as salt: hydrochloride) [EXAMPLE 35, 2-phenyl-6-(pyrrolidin-1-ylmethyl)-4H-pyrano[2,3-b]pyridin-4-one hydrochloride]			
276 to 278 °C	Cc1cc(-c2cc(=O)c3cccnc3o2)cc(C)c1OCCN1CCOCC1 (as salt: hydrochloride) [EXAMPLE 31, 2-(3,5-dimethyl-4-(2-morpholinoethoxy)phenyl)-4H-pyrano[2,3-b]pyridin-4-one hydrochloride]			
264 to 266 °C	CNc1nc(-c2cc(C)c(O)c(C)c2)cc2ccc(CN3CCN(C)CC3)cc12 (as salt: hydrochloride) [EXAMPLE 43, 2,6-dimethyl-4-(1-(methylamino)-7-((4-methylpiperazin-1-yl)methyl)isoquinolin-3-yl)phenol trihydrochloride]			
> 350 °C	Cc1cc(-c2cc3ncccc3c(=O)[nH]2)cc(C)c1O (as salt: hydrochloride) [EXAMPLE 40, 7-(4-hydroxy-3,5-dimethylphenyl)-1,6-naphthyridin-5(6H)-one hydrochloride]			
294 to 296 °C	O=c1cc(-c2ccc(O)cc2)oc2cnccc12 [EXAMPLE 3, 2-(4-Hydroxyphenyl)-pyrano[2,3-c]pyridin-one]	< 50%	< 50%	≥ 40%
245 to 247 °C	COc1cc(OC)c2c(=O)[nH]c(-c3ccc(O)cc3)cc2c1 [EXAMPLE 19, 3-(4-Hydroxyphenyl)-6,8-dimethoxyisoquinolin-1(2H)-one]	≥ 50%	< 50%	≥ 40%
234 to 235 °C	COc1cc(OC)c2c(=O)cc(-c3ccncc3)oc2c1 (as salt: hydrochloride) [EXAMPLE 34, 5,7-dimethoxy-2-(pyridin-4-yl)-4H-chromen-4-one hydrochloride]			
254 to 255 °C	Nc1ccc(-c2cc(=O)c3cccnc3o2)cc1 (as salt: hydrochloride) [EXAMPLE 38, 2-(4-aminophenyl)-4H-pyrano[2,3-b]pyridin-4-one hydrochloride]			
293.1 to 293.2 °C	O=c1cc(-c2ccc3[nH]ncc3c2)oc2ncc(CN3CCOCC3)cc12 [EXAMPLE 47, 2-(1H-indazol-5-yl)-6-(morpholinomethyl)-4H-pyrano[2,3-b]pyridin-4-one]	< 50%	< 50%	≥ 40%
289 to 291 °C	COc1cccc2c(=O)[nH]c(-c3ccc(O)c(F)c3)cc12 [EXAMPLE 18, 3-(3-Fluoro-4-hydroxyphenyl)-5-methoxyisoquinolin-1(2H)-one]	≥ 50%	≥ 50%	≥ 40%
280 °C	Cc1cc(-c2cc(=O)c3cccnc3o2)cc(C)c1OCC(=O)O [EXAMPLE 29, 2-(2,6-dimethyl-4-(4-oxo-4H-pyrano[2,3-b]pyridin-2-yl)phenoxy)acetic Acid]	< 50%	< 50%	≥ 40%
236 to 238 °C	CN(C)CCOc1ccc(-c2cc(=O)c3cccnc3o2)cc1 (as salt: hydrochloride) [EXAMPLE 27, 2-(4-(2-(dimethylamino)ethoxy)phenyl)-4H-pyrano[2,3-b]pyridin-4-one dihydrochloride]			
253 to 255 °C	COc1cc(-c2cc(=O)c3cccnc3o2)ccc1O [EXAMPLE 8, 2-(4-Hydroxy-3-methoxyphenyl)-4H-pyrano[2,3-b]pyridine-4-one]	< 50%	≥ 50%	< 40%
163.2 to 165.5 °C	COc1cc(OC)c2c(N)nc(-c3cc(C)c(O)c(C)c3)cc2n1 [EXAMPLE 45, 4-(5-amino-2,4-dimethoxy-1,6-naphthyridin-7-yl)-2,6-dimethylphenol]	< 50%	≥ 50%	≥ 40%
306 to 308 °C	O=c1cc(-c2ccc(O)cc2)oc2ccncc12 [EXAMPLE 6, 2-(4-Hydroxyphenyl)-4H-pyrano[3,2-c]pyridin-4-one]	< 50%	≥ 50%	≥ 40%
321.8 to 323.3 °C	O=c1[nH]c(-c2ccc(F)cc2)nc2ccc(CN3CCOCC3)cc12 [EXAMPLE 46, 2-(4-fluorophenyl)-6-(morpholinomethyl)quinazolin-4(3H)-one]	< 50%	< 50%	≥ 40%
252 to 254 °C	COc1cc(OC)c2c(=O)[nH]c(-c3cc(C)c(OCC(C)(C)O)c(C)c3)cc2c1 [EXAMPLE 42, 3-(4-(2-hydroxy-2-methylpropoxy)-3,5-dimethylphenyl)-6,8-dimethoxyisoquinolin-1(2H)-one]	< 50%	≥ 50%	≥ 40%
218 to 219 °C	O=c1cc(-c2ccc(CO)cc2)oc2ncccc12 [EXAMPLE 23, 2-(4-(hydroxymethyl)phenyl)-4H-pyrano[2,3-b]pyridin-4-one]	< 50%	< 50%	≥ 40%
272.3 to 274.8 °C	O=c1cc(-c2ccc3nccnc3c2)oc2ncccc12 [EXAMPLE 44, 2-(quinoxalin-6-yl)-4H-pyrano[2,3-b]pyridin-4-one]	< 50%	≥ 50%	≥ 40%
103 to 105 °C	O=c1cc(-c2ccccc2)oc2ncccc12 [EXAMPLE 22, 2-Phenyl-4H-pyrano[2,3-b]pyridin-4-one]	< 50%	< 50%	≥ 40%
248 to 250 °C	O=c1cc(-c2ccncc2)oc2ncccc12 (as salt: hydrochloride) [EXAMPLE 30, 2-(pyridin-4-yl)-4H-pyrano[2,3-b]pyridin-4-one hydrochloride]			
> 330 °C	COc1cc(O)nc2cc(-c3cc(C)c(O)c(C)c3)[nH]c(=O)c12 (as salt: hydrochloride) [EXAMPLE 41, 2-hydroxy-7-(4-hydroxy-3,5-dimethylphenyl)-4-methoxy-1,6-naphthyridin-5(6H)-one dihydrochloride]			
	CN(C)Cc1ccc2oc(-c3ccncc3)cc(=O)c2c1 [EXAMPLE 50, 6-((dimethylamino)methyl)-2-(pyridinyl)-4H-chromen-4-one]	< 50%	< 50%	≥ 40%
